Counter-ions that a name gives are not always drawn.
Tests used:
Rat GnRH Receptor = target: T1, Rat GnRH Receptor (Rattus norvegicus, UniProt P30969); assay: ^125 I-leuprolerin binding inhibition, rat anterior pituitary membrane fraction; design: species or system rat (Wistar); details: 4° C. for 90 minutes, read-out: GnRH-receptor binding inhibitory activity (IC50, μM) Rat
T1 construct: from tissue; host or cells: anterior pituitary of male Wistar rats (8 weeks old), membrane fraction
T1 sequence (P30969 1-327): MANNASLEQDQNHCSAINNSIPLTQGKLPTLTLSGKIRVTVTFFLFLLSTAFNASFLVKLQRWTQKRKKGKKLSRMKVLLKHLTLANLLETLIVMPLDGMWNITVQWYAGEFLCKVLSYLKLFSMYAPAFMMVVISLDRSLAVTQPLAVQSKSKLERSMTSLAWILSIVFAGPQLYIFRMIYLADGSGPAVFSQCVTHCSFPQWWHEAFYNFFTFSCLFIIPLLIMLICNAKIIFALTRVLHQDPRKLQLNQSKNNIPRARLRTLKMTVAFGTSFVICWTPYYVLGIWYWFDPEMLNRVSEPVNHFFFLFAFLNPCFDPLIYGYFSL
Method: A tube was filled with 10 μl of an aqueous solution of leuprolerin (3×10^4 M) and lactoperoxidase (0.01 mg/ml) followed by addition of 10 μl of Na^125 I solution (37 MBq). After stirring, 10 μl of 0.001% H2 O2 was added and the reaction was conducted at room temperature for 20 minutes. The reaction was stopped by adding 700 μl of 0.05% TFA and the reaction mixture was subjected to reversed-phase HPLC under the conditions set forth below. ^125 I-leuprolerin was eluted with a retention time of 26-27 minutes. Forty rats (8 weeks old, male) of Wistar strain were decapitated under no anesthesia and the anterior pituitary isolated from each animal was washed with an ice-cooled homogenate buffer (25 mM Tris (tris(hydroxylmethyl)aminomethane)-HCl, 0.3M sucrose, 1 mM EGTA (ethylene-bis(oxyethylenenitrilo)tetraacetic acid), 0.25 mM PMSF (phenylmethylsulfonyl fluoride), 10 U/ml aprotinin, 1 μg/ml pepstatin, 20 μg/ml leupeptin, 100 μg/ml phosphoramidon, 0.03% sodium azide; pH 7.5). The anterior pituitary was suspended in 2 ml of the same homogenate buffer as above and homogenized using a Polytron homogenizer. The homogenate thus prepared was centrifuged at 700 xg for 15 minutes and the supernatant was transferred to an ultracentrifuge cuvette and further centrifuged at 100,000 xg for 1 hour to provide a membrane fraction pellet. This pellet was suspended in 2 ml of an assay buffer (25 mM Tris-HCl, 1 mM ethylenediaminetetraacetic acid (EDTA), 0.1% bovine serum albumin (BSA), 0.25 mM PMSF, 1 μg/ml pepstatin, 20 μg/ml leupeptin, 100 μg/ml phosphoramidon, 0.03% sodium azide; pH 7.5) and centrifuged at 100,000 xg for 1 hour. The membrane fraction recovered as a pellet was resuspended in 10 ml of the same assay buffer as above, distributed into vials, preserved at -80° C., and reconstituted before use. The rat and human membrane fractions prepared under (B) and (D) were respectively diluted with the assay buffer to make 200 μg/ml each and 188 μl aliquots of each dilution were distributed into tubes. The bovine membrane fraction prepared under (C) was diluted with the assay buffer to make 750 μg/ml and 188 μl aliquots of the dilution were distributed into tubes. When the rat anterior pituitary membrane fraction was used, 2 μl of 0.1 mM compound/60% dimethyl sulfoxide (DMSO) and 10 μl of 38 nM ^125 I-leuprolerin were concurrently added. […] For determination of maximum binding, a reaction mixture was prepared by adding 2 μl of 60% DMSO and 10 μl of 38 nM ^125 I-leuprolerin. For determination of non-specific binding, a reaction mixture was prepared using 2 μl of 100 μM leuprolerin/60% DMSO and 10 μl of […] ^125 I-leuprolerin. When the rat and bovine anterior pituitary membrane fractions were used, each reaction was carried out at 4° C. for 90 minutes. On the other hand, when the human GnRH receptor-expressed CHO cell membrane fraction was used, the reaction was conducted at 25° C. for 60 minutes. After completion of the reaction, the reaction mixture was suction-filtered through a polyethyleneimine-treated Whatman glass filter (GF-F) [trademark;whatman]. After filtration, the radioactivity of the residual ^125 I-leuprolerin on the filter was measured using a γ-counter. The computation formula of (TB-SB)/(TB-NSB)×100 (SB=radioactivity bound in the presence of the test compound, TB=maximum amount of radioactivity bound, NSB=amount of radioactivity nonspecifically bound) was calculated to find the binding inhibition rate for the test compound. Moreover, the inhibition rate was determined by varying the concentration of each test compound and the concentration of the compound causing 50% inhibition of binding (IC50 value) was calculated by Hill plot.

Human GnRH receptor = target: T2, Human GnRH receptor (Homo sapiens, UniProt P30968); assay: ^125 I-leuprolerin binding inhibition, human GnRH receptor-expressed CHO cell membrane fraction; details: 25° C. for 60 minutes, read-out: GnRH-receptor binding inhibitory activity (IC50, μM) Man
T2 construct: expressed in transfected cells; host or cells: CHO (Chinese hamster ovary) cells, membrane fraction
T2 sequence (P30968 1-328): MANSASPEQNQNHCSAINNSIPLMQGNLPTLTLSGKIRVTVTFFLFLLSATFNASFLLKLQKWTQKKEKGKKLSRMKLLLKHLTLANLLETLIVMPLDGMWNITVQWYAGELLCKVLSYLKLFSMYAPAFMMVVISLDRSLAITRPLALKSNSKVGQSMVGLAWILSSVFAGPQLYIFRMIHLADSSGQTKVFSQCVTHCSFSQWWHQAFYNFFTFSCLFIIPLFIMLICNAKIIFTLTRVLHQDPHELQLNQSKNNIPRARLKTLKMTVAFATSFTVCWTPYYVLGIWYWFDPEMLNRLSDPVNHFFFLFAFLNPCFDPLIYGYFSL
Method: A tube was filled with 10 μl of an aqueous solution of leuprolerin (3×10^4 M) and lactoperoxidase (0.01 mg/ml) followed by addition of 10 μl of Na^125 I solution (37 MBq). After stirring, 10 μl of 0.001% H2 O2 was added and the reaction was conducted at room temperature for 20 minutes. The reaction was stopped by adding 700 μl of 0.05% TFA and the reaction mixture was subjected to reversed-phase HPLC under the conditions set forth below. ^125 I-leuprolerin was eluted with a retention time of 26-27 minutes. […] To the sediment was added 10 ml of a cell homogenate buffer (10 mM NaHCO3, 5 mM EDTA, pH 7.5) and the mixture was homogenized using a Polytron homogenizer. The homogenate was centrifuged at 400 xg for 15 minutes and the supernatant was transferred to an ultracentrifuge cuvette and centrifuged at 100,000 xg for 1 hour to prepare a membrane fraction pellet. This pellet was suspended in 2 ml of the assay buffer and further centrifuged at 100,000 xg for 1 hour. The membrane fraction recovered as a pellet was resuspended in 20 ml of the assay buffer, distributed into vials, preserved at -80° C., and reconstituted before use. The rat and human membrane fractions prepared under (B) and (D) were respectively diluted with the assay buffer to make 200 μg/ml each and 188 μl aliquots of each dilution were distributed into tubes. The bovine membrane fraction prepared under (C) was diluted with the assay buffer to make 750 μg/ml and 188 μl aliquots of the dilution were distributed into tubes. When the rat anterior pituitary membrane fraction was used, 2 μl of 0.1 mM compound/60% dimethyl sulfoxide (DMSO) and 10 μl of 38 nM ^125 I-leuprolerin were concurrently added. […] For determination of maximum binding, a reaction mixture was prepared by adding 2 μl of 60% DMSO and 10 μl of 38 nM ^125 I-leuprolerin. For determination of non-specific binding, a reaction mixture was prepared using 2 μl of 100 μM leuprolerin/60% DMSO and 10 μl of […] ^125 I-leuprolerin. When the rat and bovine anterior pituitary membrane fractions were used, each reaction was carried out at 4° C. for 90 minutes. On the other hand, when the human GnRH receptor-expressed CHO cell membrane fraction was used, the reaction was conducted at 25° C. for 60 minutes. After completion of the reaction, the reaction mixture was suction-filtered through a polyethyleneimine-treated Whatman glass filter (GF-F) [trademark;whatman]. After filtration, the radioactivity of the residual ^125 I-leuprolerin on the filter was measured using a γ-counter. The computation formula of (TB-SB)/(TB-NSB)×100 (SB=radioactivity bound in the presence of the test compound, TB=maximum amount of radioactivity bound, NSB=amount of radioactivity nonspecifically bound) was calculated to find the binding inhibition rate for the test compound. Moreover, the inhibition rate was determined by varying the concentration of each test compound and the concentration of the compound causing 50% inhibition of binding (IC50 value) was calculated by Hill plot.

| Structure (SMILES) | IC50 (Rat GnRH Receptor) | IC50 (Human GnRH receptor) |
| --- | --- | --- |
| COc1ccc2c(c1)CCC1(CCCCN1CCCC(CCCNC(C)=O)(c1ccccc1)c1ccccc1)C2 (centres unmarked) [II-45, 1'-(7-Acetylamino-4,4-diphenylheptyl)-3,4-dihydro-6-methoxyspiro[naphthalene-2(1H),2'-piperidine] dihydrochloride] | 0.08 µM |  |
| COc1cc2c(cc1OC)CC1(CCCCN1CCCC(CCCNC(=O)Cc1ccccc1)(c1ccccc1)c1ccccc1)CC2 (centres unmarked) [II-48, 3,4-Dihydro-6,7-dimethoxy-1'-[4,4-diphenyl-7-(phenylacetylamino)heptyl]spiro[naphthalene-2(1H),2'-piperidine] hydrochloride] | 0.002 µM | 0.2 µM |
| COc1ccc2c(c1)CCC1(CCCCN1CCCC(CCNC(C)=O)(c1ccccc1)c1ccccc1)C2 (centres unmarked) [II-37, 3,4-Dihydro-6-methoxy-1'-(6-acetylamino-4,4-diphenylhexyl)spiro[naphthalene-2(1H),2'-piperidine] dihydrochloride] | 0.3 µM |  |
| COc1cc2c(cc1OC)CC1(CCCCN1CCCC(CCCNC(=O)Cc1ccc(Cl)cc1)(c1ccccc1)c1ccccc1)CC2 (centres unmarked) [II-51, 3,4-Dihydro-6,7-dimethoxy-1'-{4,4-diphenyl-7-[(4-chlorophenylacetyl)amino]heptyl}spiro[naphthalene-2(1H),2'-piperidine] hydrochloride] | 0.002 µM | 0.08 µM |
| COc1cc2c(cc1OC)CC(N(CCCC(CCCNC(C)=O)(c1ccccc1)c1ccccc1)Cc1ccccc1)CC2 (centres unmarked) [II-43, 7-Acetylamino-1-{N-benzyl-N-[2-(6,7-dimethoxy-1,2,3,4-tetrahydronaphthyl)]amino}-4,4-diphenylheptane dihydrochloride] | 0.2 µM |  |
| COc1cccc2c1CC1(CCCCN1CCCC(CCCNC(C)=O)(c1ccccc1)c1ccccc1)CC2 (centres unmarked) [II-44, 1'-(7-Acetylamino-4,4-diphenylheptyl)-3,4-dihydro-8-methoxyspiro[naphthalene-2(1H),2'-piperidine] dihydrochloride] | 0.4 µM |  |
| COc1cc2c(cc1OC)CC1(CCCCN1CCCC(CCCNC(C)=O)(c1ccccc1)c1ccccc1)CC2 (centres unmarked) [II-46, 1'-(7-Acetylamino-4,4-diphenylheptyl)-3,4-dihydro-6,7-dimethoxyspiro[naphthalene-2(1H),2'-piperidine] dihydrochloride] | 0.003 µM |  |

Results, then the compound that gave them:

| IC50 (Rat GnRH Receptor) | IC50 (Human GnRH receptor) | Structure (SMILES) |
| --- | --- | --- |
| 0.009 µM | 0.2 µM | COc1cc2c(cc1OC)CC1(CCCCN1CCCC(CCCNC(=O)CCc1ccccc1)(c1ccccc1)c1ccccc1)CC2 (centres unmarked) [II-64, 3,4-Dihydro-6,7-dimethoxy-1'-{4,4-diphenyl-7-[(3-phenylpropionyl)amino]heptyl}spiro[naphthalene-2(1H),2'-piperidine] hydrochloride] |
| 0.01 µM |  | COc1cc2c(cc1OC)CC1(CCCCN1CCCC(CCCNC(=O)COc1ccccc1)(c1ccccc1)c1ccccc1)CC2 (centres unmarked) [II-61, 3,4-Dihydro-6,7-dimethoxy-1'-{4,4-diphenyl-7-[(phenoxyacetyl)amino]heptyl}spiro[naphthalene-2(1H),2'-piperidine] hydrochloride] |
| 0.02 µM | 0.4 µM | COc1ccc(CC(=O)NCCCC(CCCN2CCCCC23CCc2cc(OC)c(OC)cc2C3)(c2ccccc2)c2ccccc2)cc1OC (centres unmarked) [II-59, 3,4-Dihydro-6,7-dimethoxy-1'-{7-[(3,4-dimethoxyphenylacetyl)amino]-4,4-diphenylheptyl}spiro[naphthalene-2(1H),2'-piperidine] hydrochloride] |
| 0.002 µM | 0.1 µM | COc1cc2c(cc1OC)CC1(CCCCN1CCCC(CCCNC(=O)Cc1ccc3c(c1)OCO3)(c1ccccc1)c1ccccc1)CC2 (centres unmarked) [II-60, 3,4-Dihydro-6,7-dimethoxy-1'-{4,4-diphenyl-7-[(3,4-methylenedioxyphenylacetyl)amino]heptyl}spiro[naphthalene-2(1H),2'-piperidine] hydrochloride] |
| 0.003 µM | 0.3 µM | COc1cc2c(cc1OC)CC1(CCCCN1CCCC(CCCNC(=O)Cc1cccc3ccccc13)(c1ccccc1)c1ccccc1)CC2 (centres unmarked) [II-66, 3,4-Dihydro-6,7-dimethoxy-1'-{4,4-diphenyl-7-[(1-naphthylacetyl)amino]heptyl}spiro[naphthalene-2(1H),2'-piperidine] hydrochloride] |
| 0.001 µM | 0.02 µM | COc1ccc(CCC(=O)NCCCC(CCCN2CCCCC23CCc2cc(OC)c(OC)cc2C3)(c2ccccc2)c2ccccc2)cc1 (centres unmarked) [II-65, 3,4-Dihydro-6,7-dimethoxy-1'-{4,4-diphenyl-7-{[3-(4-methoxyphenyl)propionyl]amino}heptyl}spiro[naphthalene-2(1H),2'-piperidine] hydrochloride] |

— US5633248A, “Amine compounds, their production and use” (priority 1994, dated 1997)
